Experimental data reported in patent US20150157633A1, “WNT PROTEIN SIGNALLING INHIBITORS” (The Board of Regents of the University of Texas System, priority 2012, published 2015).
Entries after “also recorded” stand apart in the source; their conditions may differ.

Key:
Jnk = assay: Wnt7B-induced Jnk phosphorylation in L fibroblasts; format: cell-based, Mouse; conditions: L fibroblasts transfected with Wnt7B DNA
Dv12 = Dv12 phosphorylation in HeLa cells (Western blot); format: cell-based; conditions: cell-autonomous Wnt signaling
HHAT = HHAT (Homo sapiens, UniProt Q5VTY9); assay: Click chemistry labeling of Hh protein with alkynyl-PA (Hh fatty acylation); format: cell-based
Wnt5A = assay: Wnt5A-dependent antagonism of Wnt/β-catenin signaling, STF reporter in HEK293 cells; format: cell-based; conditions: Wnt3A-containing conditioned medium
Method: (§1) Luciferase reporter assays. Wnt-Gaussia luciferase secretion and SuperTopFlash assays were conducted as described using a Dual Luciferase kit (Promega) (Chen et al., 2009).

Hh = conditions: previously demonstrated (Chen et al., 2009); cited from earlier work
Porcn = target: T1, Porcn (Homo sapiens, UniProt Q9H237); assay: Click chemistry labeling of Wnt3A-Fc with alkynyl-PA (Wnt fatty acylation); format: cell-based
T1 construct: endogenous in cells; host or cells: HEK293
T1 sequence (Q9H237 1-461): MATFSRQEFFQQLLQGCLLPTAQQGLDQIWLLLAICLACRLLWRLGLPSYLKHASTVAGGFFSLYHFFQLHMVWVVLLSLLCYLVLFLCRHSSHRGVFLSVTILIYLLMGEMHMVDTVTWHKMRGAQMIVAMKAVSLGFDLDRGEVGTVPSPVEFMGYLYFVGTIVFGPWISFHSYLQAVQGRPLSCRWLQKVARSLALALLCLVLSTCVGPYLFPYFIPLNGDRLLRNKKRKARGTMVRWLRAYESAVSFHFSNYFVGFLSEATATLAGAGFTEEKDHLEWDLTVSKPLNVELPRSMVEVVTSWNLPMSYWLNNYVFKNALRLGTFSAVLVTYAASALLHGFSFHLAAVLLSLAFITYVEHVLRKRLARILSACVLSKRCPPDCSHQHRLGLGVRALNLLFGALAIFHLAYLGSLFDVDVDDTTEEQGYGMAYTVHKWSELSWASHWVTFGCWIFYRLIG
Method: Click chemistry. HEK293 cells transiently transfected with the Wnt3A-Fc DNA expression construct were treated with C16 ω-alkynyl fatty acid (see Reagents; 100 μM final concentration) for six hours as previously described (9) in the presence or DMSO or various IWP compounds. C16 ω-alkynyl fatty acid-labeled Wnt3A-Fc protein isolated from cell lysate using Protein A sepharose was then subjected to a copper catalyzed alkyne-azide cycloaddition with biotin-azide with protein immobilized on the sepharose. The biotinylated Wnt protein run on SDS PAGE was detected using HRP conjugated streptavidin.

[1] = system: general protein secretion; conditions: previously demonstrated (Chen et al., 2009); cited from earlier work
Wnt1-GFP = assay: Organotypic embryonic kidney culture from Wnt1-GFP mice; format: cell-based
Method: Organotypic kidney culture. E11.5 urogenital systems were removed and bisected in sterile phosphate buffered saline (PBS) and then the individual halves were cultured in […] of media at the air-media interface on 24-well tissue culture treated, 6.5 mm diameter, […] pore size Transwell filters (Corning, catalog no. 3422). The media (DMEM with 10% fetal bovine serum (FBS) and Pen/Strep) was supplemented with either DMSO or IWP2 and replaced with fresh media every 12, 24, or 48 hours. All treatments were repeated at least three times with a minimum of six individual kidneys from six distinct embryos each time.

Wnt-GL fusion proteins = assay: Wnt-Gaussia luciferase secretion assay in HEK293 cells; format: cell-based; conditions: HEK293 cells expressing one of several Wnt-GL proteins
Method: as §1

Notch = conditions: previously demonstrated (Chen et al., 2009); cited from earlier work
Wnt/β-catenin pathway [2] = assay: Wnt-responsive EGFP reporter in transgenic zebrafish embryos (7XTCF-siam:EGFP); format: in vivo; conditions: for Wnt signaling activity (EGFP reporter): embryos treated from 4 hpf for 20 hours, compound in medium
tailfin regeneration = assay: Caudal fin regeneration assay in zebrafish larvae; format: in vivo; conditions: larvae resected at 3 days post fertilization, IWP12 50 μM, 4 days
[3] = system: Wnt-planar cell polarity (Wnt/PCP) signaling; assay: Convergence and extension gastrulation movements, whole mount in situ hybridization; format: in vivo, zebrafish; conditions: embryos treated starting 4 hpf
Wnt/β-catenin pathway [4] = assay: Wnt reporter GFP in cultured zebrafish primary embryonic fibroblasts; format: cell-based; conditions: fibroblasts from 6 hpf embryos, GFP visualized 20 hrs later
Description: Zebrafish embryonic cell cultures were initiated from embryos at the shield stage (6 hpf). The embryos were dissociated in trypsin/EDTA solution with gentle homogenization and pipetting. After centrifugation, the collected cells were resuspended in F12/L15/DMEM medium and placed into a 24-well tissue culture plate.

Engrailed (eng1a) = assay: eng1a expression at the midbrain/hindbrain boundary, in situ hybridization; format: in vivo, zebrafish; conditions: embryos (4 hpf) treated for 20 hours
fin regrowth = assay: Resumption of caudal fin regrowth after removal of compound; format: in vivo, zebrafish; conditions: resected caudal fins, water containing IWR-1 for 7 d, then removal
Description: Achieving transient repression of pathological Wnt response without incurring permanent damage to normal stem cell function is a key anticancer therapeutic goal.

Axin2 = Axin2 expression in DLD-1 cells; format: cell-based; conditions: exposure for 2 h
Description: Aberrant transcriptional induction of Wnt/β-catenin target genes is typically observed in CRC cells that harbor loss-of-function mutations in the APC tumor suppressor.

Chain of HHAT (Q5VTY9 whole entry, species assumed): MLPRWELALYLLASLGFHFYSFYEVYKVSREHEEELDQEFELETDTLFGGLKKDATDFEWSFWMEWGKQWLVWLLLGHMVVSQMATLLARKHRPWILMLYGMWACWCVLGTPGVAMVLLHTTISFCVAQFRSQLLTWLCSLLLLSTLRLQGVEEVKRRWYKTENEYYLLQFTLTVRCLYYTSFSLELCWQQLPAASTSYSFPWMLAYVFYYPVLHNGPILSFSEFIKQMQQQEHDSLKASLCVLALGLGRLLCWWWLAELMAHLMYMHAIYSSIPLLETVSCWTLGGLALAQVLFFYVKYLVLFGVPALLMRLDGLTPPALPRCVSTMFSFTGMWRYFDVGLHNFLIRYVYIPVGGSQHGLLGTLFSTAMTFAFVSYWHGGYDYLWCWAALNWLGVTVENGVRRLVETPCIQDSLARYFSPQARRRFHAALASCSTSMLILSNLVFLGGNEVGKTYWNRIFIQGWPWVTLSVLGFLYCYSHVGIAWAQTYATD

Cc1ccc2nc(NC(=O)CSc3nc4c(c(=O)n3-c3ccccc3)SCC4)sc2c1 [IWP2]
activation (phosphorylation) of Jnk (Jnk): disrupted | Dv12 phosphorylation (Dv12): inhibits Dv12 phosphorylation | fatty acylation of Hh mediated by Hhat (HHAT): does not block fatty acylation | production of non-canonical Wnt (Wnt5A) (Wnt5A): inhibits the production of a non-canonical Wnt (Wnt5A) | cellular responses mediated by Hh (Hh): does not block | Wnt protein acylation (Porcn): disrupts Wnt protein acylation | general protein secretion [1]: does not block | tubule induction (Wnt1-GFP; E11.5 embryonic kidney culture, Wnt/β-catenin-dependent process): disrupt tubule induction | accumulation of Wnt1 on the cell surface (Wnt1-GFP; E11.5 embryonic kidney, treated in vitro for 24 hours): block the accumulation of Wnt1 on the cell surface | accumulation of Wnt proteins in the cell culture medium (Wnt-GL fusion proteins): abrogated the accumulation of Wnt proteins in the cell culture medium | cellular responses mediated by Notch (Notch): does not block

Cc1ccc2nc(NC(=O)CSc3nc4c(c(=O)n3C)SC(C)C4)sc2c1 (stereo not drawn) [IWP12]
excess of IWP12 equivalent in activity to IWR1 (Wnt/β-catenin pathway [2]; EGFP reporter fluorescence, posterior region): approximately 10 fold | Wnt signaling activity (EGFP reporter) (Wnt/β-catenin pathway [2]): loss of Wnt signaling activity; also recorded: Dose-dependent effects | posterior body morphogenesis (Wnt/β-catenin pathway [2]; zebrafish embryos): severe effect on posterior body morphogenesis | tailfin regeneration following resection (tailfin regeneration): block juvenile fish tailfin regeneration | convergence and extension gastrulation movements [3]: block convergence and extension gastrulation movements | Wnt/β-catenin pathway response (GFP) (Wnt/β-catenin pathway [4]): loss of Wnt/β-catenin pathway responses | expression of MHB marker Engrailed (eng1a) (Engrailed (eng1a)): decreased expression of the MHB marker Engrailed (eng1a)

O=C(Nc1cccc2cccnc12)c1ccc(N2C(=O)[C@@H]3[C@H](C2=O)[C@@H]2C=C[C@H]3C2)cc1 [IWR1]
Wnt signaling activity (EGFP reporter) (Wnt/β-catenin pathway [2]): Dose-dependent effects | fin tissue regeneration after chemical removal (fin regrowth): able to regenerate tissue to nearly normal levels after chemical removal | expression of Axin2 (Axin2): a decrease in the expression of Axin2
